Results on 34 molecules are retold here after patent publication US7642253B2, “Histone deacetylase inhibitors” (Takeda San Diego, Inc., priority 2005, dated 2010).

Each structure is given as a SMILES string. pIC50: −log10 of the molar value.

In this assay the target is HDAC2 (Homo sapiens, UniProt Q92769). Nature of the assay: HDAC2 fluorescence inhibition assay (tBoc-Lys(Ac)-AMC).
Chain of HDAC2 (Q92769 with tags, fused parts or gaps): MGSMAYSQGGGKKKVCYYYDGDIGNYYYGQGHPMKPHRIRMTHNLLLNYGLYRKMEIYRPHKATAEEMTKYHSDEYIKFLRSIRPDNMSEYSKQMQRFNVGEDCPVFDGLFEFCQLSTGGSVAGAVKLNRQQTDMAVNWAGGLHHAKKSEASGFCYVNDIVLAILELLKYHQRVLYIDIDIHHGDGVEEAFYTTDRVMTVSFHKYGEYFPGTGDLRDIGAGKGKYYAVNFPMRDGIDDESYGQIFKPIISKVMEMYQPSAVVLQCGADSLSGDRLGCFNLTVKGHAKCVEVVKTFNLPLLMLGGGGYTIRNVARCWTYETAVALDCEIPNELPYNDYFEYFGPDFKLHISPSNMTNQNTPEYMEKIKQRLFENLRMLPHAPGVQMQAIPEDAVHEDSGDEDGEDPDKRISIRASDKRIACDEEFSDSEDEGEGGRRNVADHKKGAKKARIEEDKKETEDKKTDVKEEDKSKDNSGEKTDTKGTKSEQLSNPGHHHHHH
With `Nc1ccccc1NC(=O)c1ccc(CN2C(=O)Nc3ccccc3S2(=O)=O)nc1` [Example 24, N-(2-Amino-phenyl)-6-(1,1,3-trioxo-3,4-dihydro-1H-1λ^6-benzo[1,2,4]thiadiazin-2-ylmethyl)-nicotinamide], the pIC50 was 7.00 to 7.30.

As to `Nc1ccccc1NC(=O)c1ccc(CN2C(=S)Nc3cc(C(F)(F)F)ccc3S2(=O)=O)cc1` [Example 13, N-(2-Amino-phenyl)-4-(1,1-dioxo-3-thioxo-6-trifluoromethyl-3,4-dihydro-1H-1λ^6-benzo[1,2,4]thiadiazin-2-ylmethyl)-benzamide], the negative logarithm of the IC50 (pIC50) is 7.00 to 7.30.

With `Nc1ccccc1NC(=O)c1ccc(CN2C(=O)Nc3ccc(-c4cncnc4)cc3S2(=O)=O)cc1` [Example 28, N-(2-Amino-phenyl)-4-(1,1,3-trioxo-7-pyrimidin-5-yl-3,4-dihydro-1H-1λ^6-benzo[1,2,4]thiadiazin-2-ylmethyl)-benzamide], the pIC50 is above 7.30.

`Nc1ccc(F)cc1NC(=O)c1ccc(CN2C(=O)Nc3ccccc3S2(=O)=O)cc1` [Example 22, N-(2-Amino-5-fluoro-phenyl)-4-(1,1,3-trioxo-3,4-dihydro-1H-1λ^6-benzo[1,2,4]thiadiazin-2-ylmethyl)-benzamide] showed a pIC50 above 7.30.

With `Nc1ccccc1NC(=O)c1ccc(CN2C(=O)Nc3cc(C(F)(F)F)ccc3S2(=O)=O)cc1` [Example 11, N-(2-Amino-phenyl)-4-(1,1,3-trioxo-6-trifluoromethyl-3,4-dihydro-1H-1λ^6-benzo[1,2,4]thiadiazin-2-ylmethyl)-benzamide], the negative-log IC50 (pIC50) is above 7.30.

The molecule `Nc1ccccc1NC(=O)c1ccc(CN2C(=O)Nc3ccccc3S2(=O)=O)c(F)c1` [Example 25, N-(2-Amino-phenyl)-3-fluoro-4-(1,1,3-trioxo-3,4-dihydro-1H-1λ^6-benzo[1,2,4]thiadiazin-2-ylmethyl)-benzamide] gave a pIC50 above 7.30.

`Nc1ccccc1NC(=O)c1ccc(CN2C(=O)Nc3ncc(Cl)cc3S2(=O)=O)cc1` [Example 21, N-(2-Amino-phenyl)-4-(7-chloro-1,1,3-trioxo-3,4-dihydro-1H-1λ^6-pyrido[2,3-e][1,2,4]thiadiazin-2-ylmethyl)-benzamide] gave a pIC50 above 7.30.

For `NC1=NS(=O)(=O)c2ccccc2N1Cc1ccc(C(=O)Nc2ccccc2N)cc1` [Example 2, 4-(3-Amino-1,1-dioxo-1H-1λ^6-benzo[1,2,4]thiadiazin-4-ylmethyl)-N-(2-amino-phenyl)-benzamide], the pIC50 is 6.30 to 7.00.

`CN1Cc2ccccc2N(Cc2ccc(C(=O)Nc3ccccc3N)cc2)C1=S` [Example 33, N-(2-Amino-phenyl)-4-(3-methyl-2-thioxo-3,4-dihydro-2H-quinazolin-1-ylmethyl)-benzamide] showed a pIC50 above 7.30.

`COc1ccc2c(c1)NC(=O)N(Cc1ccc(C(=O)Nc3ccccc3N)cc1)S2(=O)=O` [Example 10, N-(2-Amino-phenyl)-4-(6-methoxy-1,1,3-trioxo-3,4-dihydro-1H-1λ^6-benzo[1,2,4]thiadiazin-2-ylmethyl)-benzamide] showed a pIC50 above 7.30.

Consider `COc1ccc2c(c1)N=C(SC)N(Cc1ccc(C(=O)Nc3ccccc3N)cc1)S2(=O)=O` [Example 14, N-(2-Amino-phenyl)-4-(6-methoxy-3-methylsulfanyl-1,1-dioxo-1H-1λ6-benzo[1,2,4]thiadiazin-2-ylmethyl)-benzamide], for which the pIC50 was 7.00 to 7.30.

Turning to `CSC1=Nc2ccccc2S(=O)(=O)N1Cc1ccc(C(=O)Nc2ccccc2N)cc1` [Example 5, N-(2-Amino-phenyl)-4-(3-methylsulfanyl-1,1-dioxo-1H-1λ^6-benzo[1,2,4]thiadiazin-2-ylmethyl)-benzamide], the pIC50 is 6.30 to 7.00.

`Nc1ccccc1NC(=O)c1ccc(CN2C(=O)Nc3ccncc3S2(=O)=O)cc1` [Example 35, N-(2-Amino-phenyl)-4-(1,1,3-trioxo-3,4-dihydro-1H-1λ^6-pyrido[4,3-e][1,2,4]thiadiazin-2-ylmethyl)-benzamide] showed a pIC50 below 6.30.

As for `Nc1ccccc1NC(=O)c1ccc(CN2C(=O)Nc3ccc(-c4cccnc4)cc3S2(=O)=O)cc1` [Example 29, N-(2-Amino-phenyl)-4-(1,1,3-trioxo-7-pyridin-3-yl-3,4-dihydro-1H-1λ^6-benzo[1,2,4]thiadiazin-2-ylmethyl)-benzamide], the pIC50 is above 7.30.

As to `COc1ccc2c(c1)NC(=S)N(Cc1ccc(C(=O)Nc3ccccc3N)cc1)S2(=O)=O` [Example 12, N-(2-Amino-phenyl)-4-(6-methoxy-1,1-dioxo-3-thioxo-3,4-dihydro-1H-1λ^6-benzo[1,2,4]thiadiazin-2-ylmethyl)-benzamide], the pIC50 is above 7.30.

In the case of `Nc1ccccc1NC(=O)c1ccc(CN2C(=O)Nc3ccccc3S2(=O)=O)cc1` [Example 1, N-(2-Amino-phenyl)-4-(1,1,3-trioxo-3,4-dihydro-1H-1λ^6-benzo[1,2,4]thiadiazin-2-ylmethyl)-benzamide], the pIC50 was above 7.30.

In the case of `CN1Cc2ccccc2N(Cc2ccc(C(=O)Nc3ccccc3N)cc2)C1=O` [Example 15, N-(2-Amino-phenyl)-4-(3-methyl-2-oxo-3,4-dihydro-2H-quinazolin-1-ylmethyl)-benzamide], the pIC50 is above 7.30.

For the molecule `Nc1ccccc1NC(=O)c1ccc(CN2C(=S)Nc3cc(F)ccc3S2(=O)=O)cc1` [Example 18, N-(2-Amino-phenyl)-4-(6-fluoro-1,1-dioxo-3-thioxo-3,4-dihydro-1H-1λ^6-benzo[1,2,4]thiadiazin-2-ylmethyl)-benzamide], the pIC50 was above 7.30.

The molecule `Nc1ccccc1NC(=O)c1ccc(CN2C(=O)Nc3ccc(Br)cc3S2(=O)=O)cc1` [Example 23, N-(2-Amino-phenyl)-4-(7-bromo-1,1,3-trioxo-3,4-dihydro-1H-1λ^6-benzo[1,2,4]thiadiazin-2-ylmethyl)-benzamide] had a negative logarithm of the IC50 (pIC50) above 7.30.

For `CNC1=Nc2ccccc2S(=O)(=O)N1Cc1ccc(C(=O)Nc2ccccc2N)cc1` [Example 6, N-(2-Amino-phenyl)-4-(3-methylamino-1,1-dioxo-1H-1λ^6-benzo[1,2,4]thiadiazin-2-ylmethyl)-benzamide], the negative-log IC50 (pIC50) was 6.30 to 7.00.

Molecule `NC1=Nc2ccccc2S(=O)(=O)N1Cc1ccc(C(=O)Nc2ccccc2N)cc1` [Example 7, 4-(3-Amino-1,1-dioxo-1H-1λ^6-benzo[1,2,4]thiadiazin-2-ylmethyl)-N-(2-amino-phenyl)-benzamide] showed a pIC50 of 7.00 to 7.30.

The molecule `Nc1ccccc1NC(=O)c1ccc(CN2C(=O)NCc3ccccc32)cc1` [Example 3, N-(2-aminophenyl)-4-((2-oxo-3,4-dihydroquinazolin-1(2H),-yl)methyl)benzamide] had a negative-log IC50 (pIC50) of 6.30 to 7.00.

As for `Nc1ccccc1NC(=O)c1ccc(CN2C(=O)Nc3ccc(-c4ccoc4)cc3S2(=O)=O)cc1` [Example 32], the pIC50 was above 7.30.

Molecule `Nc1ccccc1NC(=O)c1ccc(CN2C(=O)Nc3ccc(-c4ccsc4)cc3S2(=O)=O)cc1` [Example 26, N-(2-Amino-phenyl)-4-(1,1,3-trioxo-7-thiophen-3-yl-3,4-dihydro-1H-1λ^6-benzo[1,2,4]thiadiazin-2-ylmethyl)-benzamide] showed a pIC50 above 7.30.

With `COc1ccc2c(c1)NC(=O)N(Cc1ccc(C(=O)Nc3cc(F)ccc3N)cc1)S2(=O)=O` [Example 20, N-(2-Amino-5-fluoro-phenyl)-4-(6-methoxy-1,1,3-trioxo-3,4-dihydro-1H-1λ6-benzo[1,2,4]thiadiazin-2-ylmethyl)-benzamide], the pIC50 is above 7.30.

Consider `COc1ccc2c(c1)NC(=S)N(Cc1ccc(C(=O)Nc3cc(F)ccc3N)cc1)S2(=O)=O` [Example 19, N-(2-Amino-5-fluoro-phenyl)-4-(6-methoxy-1,1-dioxo-3-thioxo-3,4-dihydro-1H-1λ^6-benzo[1,2,4]thiadiazin-2-ylmethyl)-benzamide], for which the pIC50 is above 7.30.

`Nc1ccccc1NC(=O)c1ccc(Cn2c(=O)ncc3ccccc32)cc1` [Example 8, N-(2-aminophenyl)-4-((2-oxoquinazolin-1(2H),-yl)methyl)benzamide] had a pIC50 of 6.30 to 7.00.

`CSC1=Nc2cc(C(F)(F)F)ccc2S(=O)(=O)N1Cc1ccc(C(=O)Nc2ccccc2N)cc1` [Example 16, N-(2-Amino-phenyl)-4-(3-methylsulfanyl-1,1-dioxo-6-trifluoromethyl-1H-1λ6-benzo[1,2,4]thiadiazin-2-ylmethyl)-benzamide] had a pIC50 below 6.30.

`CCSC1=Nc2ccccc2S(=O)(=O)N1Cc1ccc(C(=O)Nc2ccccc2N)cc1` [Example 9, N-(2-Amino-phenyl)-4-(3-ethylsulfanyl-1,1-dioxo-1H-1λ^6-benzo[1,2,4]thiadiazin-2-ylmethyl)-benzamide] had a pIC50 of 6.30 to 7.00.

The molecule `Nc1ccccc1NC(=O)c1ccc(CN2C(=O)Nc3cc(F)ccc3S2(=O)=O)cc1` [Example 17, N-(2-Amino-phenyl)-4-(6-fluoro-1,1,3-trioxo-3,4-dihydro-1H-1λ^6-benzo[1,2,4]thiadiazin-2-ylmethyl)-benzamide] gave a pIC50 of 6.30 to 7.00.

In turn, `Nc1ccccc1NC(=O)c1ccc(CN2C(=O)Nc3ccc(-c4cccs4)cc3S2(=O)=O)cc1` [Example 31, N-(2-Amino-phenyl)-4-(1,1,3-trioxo-7-thiophen-2-yl-3,4-dihydro-1H-1λ^6-benzo[1,2,4]thiadiazin-2-ylmethyl)-benzamide] gave a pIC50 above 7.30.

In turn, `Nc1ccccc1NC(=O)c1ccc(CN2C(=O)Nc3ccccc3S2(=O)=O)s1` [Example 34, 5-(1,1,3-Trioxo-3,4-dihydro-1H-1λ^6-benzo[1,2,4]thiadiazin-2-ylmethyl)-thiophene-2-carboxylic acid(2-amino-phenyl)-amide] showed a negative logarithm of the IC50 (pIC50) of 7.00 to 7.30.

Regarding `Nc1ccccc1NC(=O)c1ccc(CN2C(=S)Nc3ccccc3S2(=O)=O)cc1` [Example 4, N-(2-Amino-phenyl)-4-(1,1-dioxo-3-thioxo-3,4-dihydro-1H-1λ^6-benzo[1,2,4]thiadiazin-2-ylmethyl)-benzamide], the pIC50 was above 7.30.

For `Nc1ccccc1NC(=O)c1ccc(CN2C(=O)Nc3ccc(-c4ccco4)cc3S2(=O)=O)cc1` [Example 30, N-(2-Amino-phenyl)-4-(7-furan-2-yl-1,1,3-trioxo-3,4-dihydro-1H-1λ^6-benzo[1,2,4]thiadiazin-2-ylmethyl)-benzamide], the pIC50 is above 7.30.

As a reminder, the pIC50 is the negative decadic logarithm of the IC50, by convention in mol/L. Low readings indicate a large IC50, high ones a small IC50.
